Legend:
Assay type in all cases: cell-based
[1] = target: T1, CDK2 (Homo sapiens, UniProt P24941); assay: CDK2 HIBIT PQ (protein quantification), degradation; settings: for CDK2 HIBIT PQ Max (%): Max = Maximum; for DC50: PQ = Protein Quantification
T1 construct: host or cells: HEK293
Outline: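 After overnight incubation at 37° C and 5% CO2 in 384-well plates (1.6×10^5 cells/well, 50 uL, DMEM with 10% FBS), HEK293 cells with HiBiT-tagged CDK2 were treated with compound for 6 hours. Detection used 20 μL of Nano-Glo HiBiT lytic reagent with LgBiT protein, 20 minutes of shaking at room temperature and an EnVision reading, with 0.1% DMSO as high control and medium alone as low control. These readings were the basis for DC50 and maximal degradation.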

[2] = target: T2, CDK9 (Homo sapiens, UniProt P50750); assay: CDK9 HIBIT PQ (protein quantification), degradation; settings: for Dmax: Max = Maximum; for DC50: PQ = Protein Quantification
T2 construct: host or cells: HEK293
Outline: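 CDK9 protein was read by HiBiT assay in treated HEK293 cells carrying HiBiT-tagged CDK9, seeded at 1.6×10^5 cells/well in 50 uL in 384-well plates and incubated overnight at 37° C and 5% CO2. Controls were 0.1% DMSO-treated cells (high) and culture medium only (low). Maximal degradation, Dmax and DC50 were calculated from these readings.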

[3] = target: T3, CCNE1 (Homo sapiens, UniProt P24864+P24941); assay: CCNE1 HIBIT PQ (protein quantification), degradation; settings: for CCNE1 HIBIT PQ Max (%): Max = Maximum; for DC50: PQ = Protein Quantification
T3 construct: host or cells: HEK293
Outline: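 For DC50 and maximal degradation, CCNE1 protein was quantified with a HiBiT assay in HEK293 cells carrying HiBiT-tagged CCNE1. Cells in EMEM with 10% FBS went into 384-well plates at 1.6×10⁵ cells/well in 50 uL, stayed overnight at 37° C and 5% CO₂, and then received compound for 6 hours. Readings were referenced to 0.1% DMSO-treated cells as the high control and culture medium only as the low control.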

T2 sequence (P50750 whole entry): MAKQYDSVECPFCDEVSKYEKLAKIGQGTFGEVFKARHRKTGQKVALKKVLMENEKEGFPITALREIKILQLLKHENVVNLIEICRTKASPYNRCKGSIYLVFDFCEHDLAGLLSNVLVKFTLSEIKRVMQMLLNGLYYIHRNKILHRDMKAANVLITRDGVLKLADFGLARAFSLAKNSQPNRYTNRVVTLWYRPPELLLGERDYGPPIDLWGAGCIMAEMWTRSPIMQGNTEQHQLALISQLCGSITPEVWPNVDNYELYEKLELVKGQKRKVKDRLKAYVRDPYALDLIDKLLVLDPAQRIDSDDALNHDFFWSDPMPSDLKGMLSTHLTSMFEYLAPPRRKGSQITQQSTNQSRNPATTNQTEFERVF

SMILES	CDK2 HIBIT PQ Max (%) [1] [%]	Dmax [2] [%]	DC50 [2] [nM]	CCNE1 HIBIT PQ Max (%) [3] [%]	DC50 [1] [nM]	DC50 [3] [nM]
CC(C)Oc1c(-c2cn[nH]c2)ncn2nc(NC3CCN(S(=O)(=O)c4cccc(CN5CC6(C5)CN(c5ccc7c(c5)CN(C5CCC(=O)NC5=O)C7=O)C6)c4)CC3)nc12 (racemic) [Compound 2]	46	92	25.7	41		
CC(C)Oc1c(-c2cn[nH]c2)ncn2nc(NC3CCN(S(=O)(=O)c4cccc(CN5CCN(c6cc7c(cc6F)C(=O)N(C6CCC(=O)NC6=O)C7)CC5)c4)CC3)nc12 (racemic) [Compound 3]	66	102	19.4	64	3.12	8.88
CC(C)Oc1c(-c2cn[nH]c2)ncn2nc(NC3CCN(S(=O)(=O)c4cccc(CN5CC(c6ccc7c(c6)CN(C6CCC(=O)NC6=O)C7=O)C5)c4)CC3)nc12 (racemic) [Compound 4]	63	4		65	4.14	7.1
CC(C)Oc1c(-c2cn[nH]c2)ncn2nc(NC3CCN(S(=O)(=O)N4CCC(CN5CCC(c6cccc7c6n(C)c(=O)n7C6CCC(=O)NC6=O)CC5)CC4)CC3)nc12 (racemic) [Compound 6, rac-(R)-3-(4-(1-((1-((4-((8-isopropoxy-7-(1H-pyrazol-4-yl)-[1,2,4]triazolo[1,5-c]pyrimidin-2-yl)amino)piperidin-1-yl)sulfonyl)piperidin-4-yl)methyl)piperidin-4-yl)-3-methyl-2-oxo-2,3-dihydro-1H-benzo[d]imidazol-1-yl)piperidine-2,6-dione]	80	103	1.48	73	0.59	0.88
CC(C)Oc1c(-c2cn[nH]c2)ncn2nc(Nc3ccc(S(=O)(=O)c4cccc(N5CCN(CC6CCN(c7ccc8c(c7)CN(C7CCC(=O)NC7=O)C8=O)CC6)CC5)c4)cc3F)nc12 (racemic) [Compound 9]	89	97	11.7	72	1.44	6.38
CC(C)Oc1c(-c2cn[nH]c2)ncn2nc(Nc3ccc(S(=O)(=O)c4cccc(CN5CC6(C5)CN(c5ccc7c(c5)CN(C5CCC(=O)NC5=O)C7=O)C6)c4)cc3F)nc12 (racemic) [Compound 10]	86	54	25.5	60	3.76	10.6
CC(C)Oc1c(-c2cn[nH]c2)ncn2nc(Nc3ccc(S(=O)(=O)c4cccc(CN5CCN(c6cc7c(cc6F)C(=O)N(C6CCC(=O)NC6=O)C7)CC5)c4)cc3F)nc12 (racemic) [Compound 11]	90	50		65	2.25	14.4
CC(C)Oc1c(-c2cn[nH]c2)ncn2nc(Nc3ccc(S(=O)(=O)c4cccc(CN5CC(c6ccc7c(c6)CN(C6CCC(=O)NC6=O)C7=O)C5)c4)cc3F)nc12 (racemic) [Compound 12]	89	8		62	2.2	4.06
CC(C)Oc1c(-c2cn[nH]c2)ncn2nc(Nc3ccc(S(=O)(=O)c4cccc(CN5CCC(c6cccc7c6n(C)c(=O)n7C6CCC(=O)NC6=O)CC5)c4)cc3F)nc12 (racemic) [Compound 13]	85	53	6.6	44	0.42	
CC(C)Oc1c(-c2cn[nH]c2)ncn2nc(Nc3ccc(S(=O)(=O)N4CCC(CN5CCC(c6cccc7c6n(C)c(=O)n7C6CCC(=O)NC6=O)CC5)CC4)cc3F)nc12 (racemic) [Compound 14, rac-(R)-3-(4-(1-((1-((3-fluoro-4-((8-isopropoxy-7-(1H-pyrazol-4-yl)-[1,2,4]triazolo[1,5-c]pyrimidin-2-yl)amino)phenyl)sulfonyl)piperidin-4-yl)methyl)piperidin-4-yl)-3-methyl-2-oxo-2,3-dihydro-1H-benzo[d]imidazol-1-yl)piperidine-2,6-dione]	70	74	1.12	33	0.24	
CC(C)Oc1c(-c2cn[nH]c2)ncn2nc(Nc3ccc(S(=O)(=O)N(C)CCCN4CCC(c5ccc6c(c5)n(C)c(=O)n6[C@H]5CCC(=O)NC5=O)CC4)cc3F)nc12 (racemic) [Compound 16]	91	94	0.52	79	< 0.152	0.21
CC(C)Oc1c(-c2cn[nH]c2)ncn2nc(Nc3ccc(S(=O)(=O)N(C)CCCN4CCN(c5cccc6c5n(C)c(=O)n6C5CCC(=O)NC5=O)CC4)cc3F)nc12 (racemic) [Compound 17]	91	77	2.7	83	0.26	0.94
CC(C)Oc1c(-c2cn[nH]c2)ncn2nc(Nc3ccc(S(=O)(=O)N(C)CCCN4CCC(c5cccc6c5n(C)c(=O)n6C5CCC(=O)NC5=O)CC4)cc3F)nc12 (racemic) [Compound 18]	90	87	2.19	82	0.6	0.64
CC(C)Oc1c(-c2cn[nH]c2)ncn2nc(NC3CCN(S(=O)(=O)N(C)CCCN4CCC(c5cccc6c5n(C)c(=O)n6C5CCC(=O)NC5=O)CC4)CC3)nc12 (racemic) [Compound 19]	90	77	3.8	85	0.87	0.77
CC(C)Oc1c(-c2cn[nH]c2)ncn2nc(Nc3ccc(S(=O)(=O)c4cccc(N5CCC(CN6CCN(c7ccc8c(c7)CN(C7CCC(=O)NC7=O)C8=O)CC6)CC5)c4)cc3F)nc12 (racemic) [Compound 22]	93	97	16.1	71	1.7	10.9
CC(C)Oc1c(-c2cn[nH]c2)ncn2nc(Nc3ccc(S(=O)(=O)c4cccc(OC5CN(C6CCN(c7ccc8c(c7)CN(C7CCC(=O)NC7=O)C8=O)CC6)C5)c4)cc3F)nc12 (racemic) [Compound 23]	87	61	10.6	42	1.1	
CC(C)Oc1c(-c2cn[nH]c2)ncn2nc(Nc3ccc(S(=O)(=O)c4cccc(CN5CCN(c6ccc7c(N8CCC(=O)NC8=O)nn(C)c7c6)CC5C(C)C)c4)cc3F)nc12 (single isomer, unassigned) [Compound 106]	94			59	8.3	39.4
CC(C)Oc1c(-c2cn[nH]c2)ncn2nc(Nc3ccc(S(=O)(=O)c4cccc(CN5CCN(c6ccc7c(N8CCC(=O)NC8=O)nn(C)c7c6)CC5C(C)C)c4)cc3F)nc12 (single isomer, unassigned) [Compound 107]	93			71	12	63.1
